Key:
Prothrombin = Prothrombin (Homo sapiens, UniProt P00734); test: Inhibition of factor 2a
Coagulation factor X = Coagulation factor X (Homo sapiens, UniProt P00742); test: Inhibition of factor 10a
Coagulation factor VII = target: T1, Coagulation factor VII (Homo sapiens, UniProt P08709); test: Inhibition of factor 7a
T1 sequence (P08709 whole entry): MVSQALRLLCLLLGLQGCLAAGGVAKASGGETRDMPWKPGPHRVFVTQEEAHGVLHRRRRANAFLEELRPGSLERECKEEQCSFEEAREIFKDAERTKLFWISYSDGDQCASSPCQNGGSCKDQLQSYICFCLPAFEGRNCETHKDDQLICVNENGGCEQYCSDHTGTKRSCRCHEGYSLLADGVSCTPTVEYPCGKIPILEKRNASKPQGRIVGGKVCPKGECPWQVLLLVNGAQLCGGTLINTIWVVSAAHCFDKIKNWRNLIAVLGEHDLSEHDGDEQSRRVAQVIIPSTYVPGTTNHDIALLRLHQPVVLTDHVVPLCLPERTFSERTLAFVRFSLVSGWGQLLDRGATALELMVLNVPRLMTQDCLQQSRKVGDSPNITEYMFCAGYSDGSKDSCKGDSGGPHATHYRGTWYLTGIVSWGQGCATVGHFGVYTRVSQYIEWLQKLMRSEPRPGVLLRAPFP

Trypsin = Trypsin (Homo sapiens, UniProt P07477+P07478+P35030); test: Inhibition of trypsin; type: protein assay

Coagulation factor X, sequence (P00742 41-179 limits assumed): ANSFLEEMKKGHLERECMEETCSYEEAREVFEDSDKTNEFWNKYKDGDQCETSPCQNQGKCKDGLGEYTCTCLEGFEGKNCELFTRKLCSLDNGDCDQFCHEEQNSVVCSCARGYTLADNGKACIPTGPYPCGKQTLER
Coagulation factor X, sequence (P00742 235-488 limits assumed): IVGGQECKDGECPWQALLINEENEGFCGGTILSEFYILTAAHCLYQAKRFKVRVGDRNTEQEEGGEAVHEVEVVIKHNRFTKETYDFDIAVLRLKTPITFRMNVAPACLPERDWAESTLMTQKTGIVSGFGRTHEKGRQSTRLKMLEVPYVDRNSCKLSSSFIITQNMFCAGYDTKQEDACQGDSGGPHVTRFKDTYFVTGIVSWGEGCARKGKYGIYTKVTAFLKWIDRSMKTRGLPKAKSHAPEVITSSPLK

Row | IC50 (Prothrombin) [µM] | IC50 (Coagulation factor X) [µM] | IC50 (Coagulation factor VII) [µM] | IC50 (Trypsin) [µM] | SMILES
1 | > 100 | > 30 | 5.48 | – | N=C(N)c1c(F)c(F)c(CNC(=O)Cn2c(-c3cccc(N)c3)c(Cl)nc(NC3CCC3)c2=O)c(F)c1F
2 | > 30 | > 30 | 30 | 9.1 | N=C(N)c1ccc(S(=O)(=O)NCCn2c(-c3cccc(N)c3)c(Cl)nc(NC3CCC3)c2=O)cc1
3 | – | > 30 | – | – | Nc1cccc(-c2c(Cl)nc(NC3CCC3)c(=O)n2CC(=O)NCc2ccc3c(N)nsc3c2)c1
4 | > 30 | > 30 | > 30 | > 30 | Nc1cccc(-c2c(Cl)nc(NC3CCC3)c(=O)n2CC(=O)NCCc2cnc[nH]2)c1
5 | > 30 | > 30 | > 30 | 6.2 | Nc1cccc(-c2c(Cl)nc(NC3CCC3)c(=O)n2CC(=O)NCCc2cnc(N)[nH]2)c1
6 | > 30 | > 30 | – | > 30 | Nc1cccc(-c2c(Cl)nc(NC3CCC3)c(=O)n2CC(=O)NCc2ccc3c(N)noc3c2)c1
7 | > 30 | > 30 | – | – | N=C(N)c1ccc(CNC(=O)Cn2c(-c3cccc(N)c3)c(Cl)nc(NC3CCC3)c2=O)cc1F
8 | > 30 | > 30 | 0.79 | 0.23 | N=C(N)c1ccc(CNC(=O)Cn2c(-c3cccc(N)c3)c(Cl)nc(NC3CCC3)c2=O)c(C(F)(F)F)c1
9 | > 30 | > 30 | > 30 | > 30 | Nc1cccc(-c2c(Cl)nc(NC3CCC3)c(=O)n2CC(=O)NCc2ccc3c(N)nccc3c2)c1
10 | – | 0.05 | 0.04 | > 30 | N=C(N)c1ccc(CNC(=O)Cn2c(-c3cccc(N)c3)c(Cl)nc(NC3CCC3)c2=O)c(F)c1
11 | > 100 | > 100 | 0.19 | 7.55 | N=C(N)c1ccc(CNC(=O)Cn2c(-c3cccc(N)c3)c(Cl)nc(NC3CCC3)c2=O)cc1O
12 | > 30 | > 30 | > 30 | > 30 | NC1=NCCSc2cc(CNC(=O)Cn3c(-c4cccc(N)c4)c(Cl)nc(NC4CCC4)c3=O)ccc21
13 | 10.6 | 0.04 | 0.02 | – | Nc1cccc(-c2c(Cl)nc(NC3CCC3)c(=O)n2CC(=O)NCc2ccccc2)c1
14 | > 100 | > 100 | – | – | N/N=C(/N)c1ccc(CNC(=O)Cn2c(-c3cccc(N)c3)c(Cl)nc(NC3CCC3)c2=O)cc1
15 | > 100 | > 100 | 0.11 | – | N=C(N)c1c(O)c(F)c(CNC(=O)Cn2c(-c3cccc(N)c3)c(Cl)nc(NC3CCC3)c2=O)c(F)c1F
16 | > 30 | > 30 | > 30 | – | N=c1[nH][nH]c(=O)c2cc(CNC(=O)Cn3c(-c4cccc(N)c4)c(Cl)nc(NC4CCC4)c3=O)ccc12
17 | > 30 | > 30 | > 30 | – | Nc1cccc(-c2c(Cl)nc(NC3CCC3)c(=O)n2CC(=O)NCc2ccnc(N)n2)c1
18 | – | > 30 | – | – | N=C(N)c1ccc(C(=O)NCCn2c(-c3cccc(N)c3)c(Cl)nc(NC3CCC3)c2=O)cc1

— ChEMBL document CHEMBL1145416, “Design, synthesis, and biological evaluation of pyrazinones containing novel P1 needles as inhibitors of TF/VIIa” (Bioorg Med Chem Lett, 2007)
